Measured values: the supplement of paper PMC11208160

Test: recombinant barcode read abundance after kanamycin selection (control-corrected) (log10(CPM+1)); higher = more efficient recombination; sequences stand for … in AGTGCAGAGAAAATCGGCCAGTTTTCTCTGCCTGCAGTCCGCATGCCGT…ATTTATGCAGCGGACTGCCTTTCTCCCAAAGTGATAAACCGGACAGTATCATGGACCGGTTTTCCCGGTAATCCGTATTTGCAAGGTTGGTTTCACT; site = the 11-nt target
Summary of the method: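 A vector carrying a T7-inducible recombinase and the last 73 bp of the bridge RNA received, by Gibson cloning, oligos encoding a promoter, target, barcode and the first 104 bridge RNA bases under J23119. The pooled constructs entered E. coli together with a donor plasmid by electroporation. Selection used chloramphenicol/ampicillin/kanamycin with 0.1 mM IPTG, with chloramphenicol/ampicillin LB agar as the control, each in two replicates. Recombination efficiency is the averaged, control-corrected counts-per-million of barcodes at recombinant junctions, reported as log10(CPM+1).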

Sequence | recombinant barcode read abundance (log10)
TCTACCCCTTGGGTTCTAACCTGTTGCTGCT [TCTACCCCTCA_LTGcore_CT_RTGcore_AG] (site TCTACCCCTCA) (LTG core: CT, RTG core: AG) | 0.0324
TCTACCCCTTGGGTTCTAACCTGTTGCTGGT [TCTACCCCTCA_LTGcore_CT_RTGcore_AC] (site TCTACCCCTCA) (LTG core: CT, RTG core: AC) | 0.0498
TCTACCCCTTGGGTTCTAACCTGTTGCTGTC [TCTACCCCTCA_LTGcore_CT_RTGcore_GA] (site TCTACCCCTCA) (LTG core: CT, RTG core: GA) | 0.0329
TCTACCCCTTGGGTTCTAACCTGTTGCTGTT [TCTACCCCTCA_LTGcore_CT_RTGcore_AA] (site TCTACCCCTCA) (LTG core: CT, RTG core: AA) | 0.07
TCTACCCGATGGGTTCTAACCTGTTGCTGTC [TCTACCCCTCA_LTGcore_GA_RTGcore_GA] (site TCTACCCCTCA) (LTG core: GA, RTG core: GA) | 0.0498
TCTACCCGGTGGGTTCTAACCTGTTGCTGAG [TCTACCCCTCA_LTGcore_GG_RTGcore_CT] (site TCTACCCCTCA) (LTG core: GG, RTG core: CT) | 0.0172
TCTACCCTATGGGTTCTAACCTGTTGCTGAG [TCTACCCCTCA_LTGcore_TA_RTGcore_CT] (site TCTACCCCTCA) (LTG core: TA, RTG core: CT) | 0.0453
TGATACCAATGGGTTCTAACCTGTTGCGTAG [TGATACCCTAC_LTGcore_AA_RTGcore_CT] (site TGATACCCTAC) (LTG core: AA, RTG core: CT) | 0.143
TGATACCACTGGGTTCTAACCTGTTGCGTAG [TGATACCCTAC_LTGcore_AC_RTGcore_CT] (site TGATACCCTAC) (LTG core: AC, RTG core: CT) | 0.135
TGATACCCTTGGGTTCTAACCTGTTGCGTCC [TGATACCCTAC_LTGcore_CT_RTGcore_GG] (site TGATACCCTAC) (LTG core: CT, RTG core: GG) | 0.629
TGATACCCTTGGGTTCTAACCTGTTGCGTCG [TGATACCCTAC_LTGcore_CT_RTGcore_CG] (site TGATACCCTAC) (LTG core: CT, RTG core: CG) | 0.0319
TGATACCCTTGGGTTCTAACCTGTTGCGTCT [TGATACCCTAC_LTGcore_CT_RTGcore_AG] (site TGATACCCTAC) (LTG core: CT, RTG core: AG) | 0.133
TGATACCCTTGGGTTCTAACCTGTTGCGTGA [TGATACCCTAC_LTGcore_CT_RTGcore_TC] (site TGATACCCTAC) (LTG core: CT, RTG core: TC) | 0.864
TGATACCCTTGGGTTCTAACCTGTTGCGTGG [TGATACCCTAC_LTGcore_CT_RTGcore_CC] (site TGATACCCTAC) (LTG core: CT, RTG core: CC) | 0.651
TGATACCGATGGGTTCTAACCTGTTGCGTAG [TGATACCCTAC_LTGcore_GA_RTGcore_CT] (site TGATACCCTAC) (LTG core: GA, RTG core: CT) | 0.221
TGATACCGTTGGGTTCTAACCTGTTGCGTAC [TGATACCCTAC_LTGcore_GT_RTGcore_GT] (site TGATACCCTAC) (LTG core: GT, RTG core: GT) | 0.0235

Sequence | recombinant barcode read abundance (log10)
TGATACCGTTGGGTTCTAACCTGTTGCGTAG [TGATACCCTAC_LTGcore_GT_RTGcore_CT] (site TGATACCCTAC) (LTG core: GT, RTG core: CT) | 0.236
TGTATTCACTGGGTTCTAACCTGTTGCCTAG [TGTATTCCTAG_LTGcore_AC_RTGcore_CT] (site TGTATTCCTAG) (LTG core: AC, RTG core: CT) | 0.0447
TGTATTCACTGGGTTCTAACCTGTTGCCTGT [TGTATTCCTAG_LTGcore_AC_RTGcore_AC] (site TGTATTCCTAG) (LTG core: AC, RTG core: AC) | 0.251
TGTATTCCTTGGGTTCTAACCTGTTGCCTAA [TGTATTCCTAG_LTGcore_CT_RTGcore_TT] (site TGTATTCCTAG) (LTG core: CT, RTG core: TT) | 0.0404
TGTATTCCTTGGGTTCTAACCTGTTGCCTGC [TGTATTCCTAG_LTGcore_CT_RTGcore_GC] (site TGTATTCCTAG) (LTG core: CT, RTG core: GC) | 0.133
TGTATTCCTTGGGTTCTAACCTGTTGCCTGG [TGTATTCCTAG_LTGcore_CT_RTGcore_CC] (site TGTATTCCTAG) (LTG core: CT, RTG core: CC) | 0.0432
TGTATTCCTTGGGTTCTAACCTGTTGCCTTT [TGTATTCCTAG_LTGcore_CT_RTGcore_AA] (site TGTATTCCTAG) (LTG core: CT, RTG core: AA) | 0.0134
TGTATTCGCTGGGTTCTAACCTGTTGCCTAG [TGTATTCCTAG_LTGcore_GC_RTGcore_CT] (site TGTATTCCTAG) (LTG core: GC, RTG core: CT) | 0.0931
TGTATTCGGTGGGTTCTAACCTGTTGCCTAG [TGTATTCCTAG_LTGcore_GG_RTGcore_CT] (site TGTATTCCTAG) (LTG core: GG, RTG core: CT) | 0.0184
TGTATTCTATGGGTTCTAACCTGTTGCCTAG [TGTATTCCTAG_LTGcore_TA_RTGcore_CT] (site TGTATTCCTAG) (LTG core: TA, RTG core: CT) | 0.0251
TGTATTCTCTGGGTTCTAACCTGTTGCCTGA [TGTATTCCTAG_LTGcore_TC_RTGcore_TC] (site TGTATTCCTAG) (LTG core: TC, RTG core: TC) | 0.141
TGTATTCTGTGGGTTCTAACCTGTTGCCTAG [TGTATTCCTAG_LTGcore_TG_RTGcore_CT] (site TGTATTCCTAG) (LTG core: TG, RTG core: CT) | 0.0339
TGTATTCTTTGGGTTCTAACCTGTTGCCTAA [TGTATTCCTAG_LTGcore_TT_RTGcore_TT] (site TGTATTCCTAG) (LTG core: TT, RTG core: TT) | 0.0888
TTATAAAAATGGGTTCTAACCTGTTGCCTAG [TTATAAACTAG_LTGcore_AA_RTGcore_CT] (site TTATAAACTAG) (LTG core: AA, RTG core: CT) | 0.0784
TTATAAACATGGGTTCTAACCTGTTGCCTTG [TTATAAACTAG_LTGcore_CA_RTGcore_CA] (site TTATAAACTAG) (LTG core: CA, RTG core: CA) | 0.0537
TTATAAACCTGGGTTCTAACCTGTTGCCTAG [TTATAAACTAG_LTGcore_CC_RTGcore_CT] (site TTATAAACTAG) (LTG core: CC, RTG core: CT) | 0.437
